One test has as its system E3-STn cells. Kind of test: E3-STn transfected murine breast tumor allograft model, tumor volume. To be noted: 7G9-1A8 25 mg/kg ip twice weekly 3 weeks, Paclitaxel daily 5 days. Format: in vivo, mouse. The procedure: 3 test articles were evaluated during the study.
Standard deviation values are listed in parenthesis.

The subject of test [1] is STn on bovine submaxillary mucin (BSM). Kind of test: Anti-STn BSM ELISA. Format: binding. The settings on record: BSM ELISA, sodium periodate treated wells. As to the method:
(§1) Anti-STn serum titer is determined using a murine anti-STn bovine submaxillary mucin (BSM) ELISA together with serum profiles observed by glycan microarray. 96-well plates are coated with 1 μg/well of BSM and incubated overnight at 4° C. O-acetylation of BSM antigen is removed by treating wells with 0.1 M sodium hydroxide. Specific binding to STn is determined by treatment of wells with sodium periodate. Periodate treatment destroys the C6 side chain of sialic acid; therefore antibodies raised against STn should not bind to periodate-treated wells. Wells are blocked with PBS 1% ovalbumin (OVA). Serum samples to be assayed are serially diluted in PBS 1% OVA. A commercially available mouse anti-STn monoclonal antibody, 3F1 (SBH Sciences, Natick, Mass.) is used as a positive control. This antibody is also serially diluted in PBS with 1% OVA. A pool of serum from naïve wild type mice is used for the preparation of negative control samples. Detection of anti-STn antibodies present in serum is determined using an HRP-conjugated polyclonal goat anti-mouse IgG antibody (Jackson Immunoresearch, West Grove, Pa.). The reaction is stopped by addition of sulfuric acid (1.6 M). Optical densities are measured at 490 nm using a Spectramax microplate reader (Molecular Devices, Sunnyvale, Calif.). The serum titer is obtained by comparison of OD values with a cutoff value calculated as two standard deviations above the mean of optical density values of the negative control. […]
Binding affinities of 18D2 and 18C7 to STn were compared to commercially available anti-STn antibodies using the BSM ELISA assay described in Example 2. […] Antibody binding was determined using HRP-conjugated polyclonal goat anti-mouse IgG antibody (Jackson Immunoresearch Laboratories, West Grove, Pa.). […] Optical densities were measured at 490 nm using a Spectramax microplate reader. […] The half maximal effective concentration (EC50) for each antibody was calculated using a non-linear regression analysis carried out on periodate subtracted data.

Test [2] is described as follows: Glycan array STn specificity and anti-STn antibody group. The format is binding. More on the design: key to Group: Group 1 antibodies according to the invention are antibodies capable of binding AcSTn and GcSTn; Antibodies were assigned to Group 2 based on their ability to bind STn as well as some related structures that include an O-linkage to serine or threonine; Group 3 antibodies are antibodies capable of binding STn, but may also bind a broader set of related structures; Group 4 antibodies are capable of binding to both AcSTn and GcSTn as well as the un-sialylated Tn antigen. The settings on record: assigned from flow cytometry and glycan array analysis. As to the method: Optimized glycan arrays comprise 71 chemically synthesized and well-defined glycans, most of which comprise Neu5Ac and Neu5Gc glycan pairs.
300 ml of epoxy blocking buffer is prepared by combining 15 ml of 2 M Tris buffer (pH 8) with 0.9 ml of 16.6 M ethanolamine and 284.1 ml of distilled water. The solution is filtered using a […] nitrocellulose membrane. The epoxy buffer solution as well as 1 L of distilled water are pre-warmed to 50° C. Glass slides are arranged in a slide holder and quickly submerged in a staining tub with the warmed epoxy blocking buffer. Slides are incubated in the epoxy blocking buffer for 1 hour at 50° C. with periodic shaking to deactivate epoxy binding sites. Next, slides are rinsed and blocked with PBS with 1% OVA at 25° C. for one hour. Serum samples are diluted 1:1000 in PBS with 1% OVA and added to the glycan array for one hour at 25° C. After extensive washing, binding of polyclonal serum antibodies are detected by incubating glycan microarray slides with Cy3-conjugated anti-mouse IgG (Jackson Immunoresearch, West Grove, Pa.) for one hour. Slides are then washed extensively, dried and scanned with a Genepix 4000B scanner (Laser at 100%; gain at 350; 10 μm pixels). Raw data from scanned images are extracted using the Genepix software and analysis of raw data is carried out.
Based on characterization data, anti-STn antibodies developed from Group 6 and Group 8 mice were categorized by anti-STn group number. In some cases, antibodies were assigned to Group 1. Group 1 antibodies according to the invention are antibodies capable of binding AcSTn and GcSTn. Such antibodies may have the ability to associate with a wider range of STn structures. The large oval in FIG. 1A indicates the portion of STn recognized by Group 1 antibodies. […] Also listed in the Table is the antibody Isotype for each antibody as determined by the IsoStrip mouse monoclonal antibody isotyping kit (Roche Diagnostics GmbH, Manheim, Germany).
(A flow cytometer gives signals particle by particle.)

The next test can be described thus: GcSTn-PAA ELISA. To be noted: 200 ng/well PAA antigen; 1:5 dilutions from 1 μM. Format: binding. The procedure:
as §1, with “A commercially available mouse anti-STn monoclonal antibody, 3F1 (SBH Sciences, Natick, Mass.) is used as a positive control. This antibody is also serially diluted in PBS with 1% OVA. A pool of serum from naïve wild type mice is used for the preparation of negative control samples.” left out, “The reaction is stopped by addition of sulfuric acid (1.6 M).” left out
(§2) 18D2 and 18C7 antibodies were further characterized by ELISA comprising antigens other than BSM. […] Binding of anti-STn antibodies was detected using a goat anti-mouse IgG-HRP conjugated antibody (Jackson Immunoresearch Laboratories, West Grove, Pa.). […]
In general terms: ELISA stands for enzyme-linked immunosorbent assay.

A short description of another test: AcSTn-PAA ELISA. The settings on record: 200 ng/well PAA antigen; 1:5 dilutions from 1 μM. Format: binding. The procedure:
as §1, with “A commercially available mouse anti-STn monoclonal antibody, 3F1 (SBH Sciences, Natick, Mass.) is used as a positive control. This antibody is also serially diluted in PBS with 1% OVA. A pool of serum from naïve wild type mice is used for the preparation of negative control samples.” left out, “The reaction is stopped by addition of sulfuric acid (1.6 M).” left out
as §2

As to `CC(=O)O[C@H]1C(=O)[C@@]2(C)[C@H]([C@H](OC(=O)c3ccccc3)[C@]3(O)C[C@H](OC(=O)[C@H](O)[C@@H](NC(=O)c4ccccc4)c4ccccc4)C(C)=C1C3(C)C)[C@]1(OC(C)=O)CO[C@@H]1C[C@@H]2O` [Paclitaxel, reference compound], the “Average Tumor Volume” value in the test with E3-STn cells (day 1 of treatment) is listed as 112.7 mm^3; with E3-STn cells (day 4 of treatment) it was 179.5 mm^3; with E3-STn cells (day 6 of treatment) it was 191.4 mm^3; in the test with E3-STn cells (day 8 of treatment), 198.6 mm^3; in the test on E3-STn cells (day 11 of treatment), 199.8 mm^3; with E3-STn cells (day 13 of treatment), 227.0 mm^3. Besides, the “Average Tumor Volume” value in the test with E3-STn cells (day 15 of treatment) is reported as 248.4 mm^3; with E3-STn cells (day 18 of treatment) it was 290.5 mm^3; in the test with E3-STn cells (day 20 of treatment), 328.2 mm^3; in the test on E3-STn cells (day 22), 331.8 mm^3; in the test with E3-STn cells (day 26), 344.0 mm^3; in the test on E3-STn cells (day 27), 350.1 mm^3. For the same molecule, the “Average Tumor Volume” value in the test on E3-STn cells (day 29) is on record as 352.3 mm^3; in the test with E3-STn cells (day 32) it was 355.1 mm^3; in the test with E3-STn cells (day 34), 358.4 mm^3; in the test on E3-STn cells (day 36) it was 282.0 mm^3; in the test on E3-STn cells (day 39) it was 267.2 mm^3; in the test on E3-STn cells (day 41), 276.4 mm^3.

B1: 18C7: anti-STn monoclonal antibody from mouse #4436; IgG2c κ; SEQ ID NO 4 and 5 (antibody, V domains shown)
VH: QVTLKESGPGILQPSQTLSLTCSFSGFSLSTFGMGVGWIRQPSGKGLEWLAHIWWDDDKYYNPALKSRLTISKDTSKNQVFLKIANVDTADTATYYCARIAYYYGSERDYWGQGTTLTVSS
VL: QIVLTQSPAIMSASPGEKVTMTCSASSSISYMHWYHQKPGTSPKRWIYDTSKLASGVPARFSGSGSGTSYSLTISSMEAEDAATYYCHQRSSYTFGGGTKLEIKR
As for B1, the “binding to periodate-treated wells” value in test [1] is “did not bind”. Also, the Group in test [2] turned out to be 1.

B2: B72.3: commercial anti-STn antibody, TAG-72 clone B72.3 (Thermo Fisher Scientific) (antibody, chains of the INN, looked up, V domains shown)
VH: QVQLQQSDAELVKPGASVKISCKASGYTFTDHAIHWAKQKPEQGLEWIGYISPGNDDIKYNEKFKGKATLTADKSSSTAYMQLNSLTSEDSAVYFCKRSYYGHWGQGTTLTVSS
VL: DIQMTQSPASLSVSVGETVTITCRASENIYSNLAWYQQKQGKSPQLLVYAATNLADGVPSRFSGSGSGTQYSLKINSLQSEDFGSYYCQHFWGTPYTFGGGTRLEIK
The term EC50 denotes the concentration giving half of the maximal effect. For the molecule B2, the concentration giving a half-maximal response (EC50) was 27.8 nM in “GcSTn-PAA ELISA” and 71.3 nM in “AcSTn-PAA ELISA”.
